Experimental data taken from patent US20250144067A1, “PERSONALIZED STARVATION THERAPY FOR CANCER” (Faeth Therapeutics, Inc., priority 2021, published 2025).
Counter-ions that a name gives are not always drawn. Like-named read-outs stand apart in the source and are kept apart here.

Key:
[1] = tested on: NCI-H292 lung cancer cells; assay: FDA drug screening, complete media vs cholesterol-free media with simvastatin (TABLE 2); type: cell-based, human
[2] = tested on: NCI-H292 lung cancer cells; assay: FDA drug screening, complete media vs cholesterol-free media without statin (TABLE 1); type: cell-based, human
[3] = NCI-H292 cells, FDA drug library screen, cholesterol-free media with simvastatin 0.04 μM
[4] = NCI-H292 cells, FDA drug library screen, complete media
[5] = complete media vs cholesterol-free media + simvastatin (0.04 μM), >0 enhanced anti-cancer activity, about 0 neutral, <0 antagonist
[6] = NCI-H292 cells, cholesterol-free media without statin
[7] = complete vs cholesterol-free media, greater than 0 enhanced anti-cancer activity, about 0 neutral, below 0 antagonists
[8] = complete media minus cholesterol-free media + simvastatin, […]
[9] = NCI-H292 cells, cholesterol-free media with simvastatin 0.04 μM, cell growth value in FDA drug screen
[10] = NCI-H292 cells, complete media, cell growth value in FDA drug screen
[11] = complete media minus cholesterol-free media + simvastatin, >0 enhanced anti-cancer activity, about 0 neutral, <0 antagonist
[12] = Complete minus Cholesterol-free, >0 enhanced anti-cancer activity, about 0 neutral, <0 antagonist
[13] = NCI-H292 cells, FDA drug library screen, cholesterol-free media without statin
[14] = NCI-H292 cells, drug in cholesterol-free media with simvastatin 0.04 μM
[15] = NCI-H292 cells, drug in complete media
[16] = NCI-H292 cells, cholesterol-free media without statin, FDA drug library screen
[17] = NCI-H292 cells, complete media, FDA drug library screen
[18] = complete vs cholesterol-free media, >0 enhanced anti-cancer activity, about 0 neutral, <0 antagonist
[19] = Complete minus Cholesterol-free, greater than 0 enhanced anti-cancer activity, about 0 neutral, below 0 antagonist
[20] = NCI-H292 cells, FDA library drug in cholesterol-free media with simvastatin 0.04 μM
[21] = NCI-H292 cells, FDA library drug in complete media

Row | Molecule | Cholesterol-free media + simvastatin (0.04 μM) [1, 3] | Complete Media [1, 4] | Difference [1, 5] | Cholesterol-free [2, 6] | Complete ([2]; NCI-H292 cells, complete media) | Difference [1, 11] | Difference [2, 12] | Cholesterol-free [2, 16] | Complete [2, 17] | also measured
1 | CCOC(=O)[C@H](CCc1ccccc1)N[C@H]1CCc2ccccc2N(CC(=O)O)C1=O [Benazepril (hydrochloride)] | 1.077 | 0.9854 | −0.09 | 1.314 | 0.8774 |  |  |  |  | Difference [2, 7]: −0.44
2 | CC(=C(CCO)SSCC1CCCO1)N(C=O)Cc1cnc(C)nc1N (stereo in doubt) [Fursultiamine] |  |  |  |  |  |  |  |  |  | Cholesterol-free media + simvastatin (0.04 μM) [1]: 1.842; Complete Media [1]: 1.268; Difference [1]: −0.57; Cholesterol-free [2]: 1.191; Complete [2]: 1.162; Difference [2]: −0.03
3 | CCOC(=O)c1cncn1[C@H](C)c1ccccc1 [Etomidate] | 0.9001 | 1.134 |  | 1.122 | 0.7993 |  |  |  |  | Difference [1, 8]: 0.23; Difference ([2]; complete vs cholesterol-free media, […]): −0.32
4 | C[C@@H](O[C@H]1OCCN(Cc2n[nH]c(=O)[nH]2)[C@H]1c1ccc(F)cc1)c1cc(C(F)(F)F)cc(C(F)(F)F)c1 [Aprepitant] |  |  |  | 0.998 | 0.7992 | 0.11 | −0.20 |  |  | Cholesterol-free media + simvastatin (0.04 μM) [1, 9]: 1.036; Complete Media [1, 10]: 1.144
5 | Bulleyaconitine A |  |  |  |  |  |  |  |  |  | Difference [1, 8]: 0.03; Difference ([2]; Complete minus Cholesterol-free, […]): −0.17; Cholesterol-free [2, 13]: 1.261; Complete [2, 4]: 1.091
6 | CN1CCCC(n2nc(Cc3ccc(Cl)cc3)c3ccccc3c2=O)CC1 (stereo not shown) [Azelastine (hydrochloride)] |  |  | −0.22 |  |  |  |  | 0.9594 | 1.039 | Cholesterol-free media + simvastatin (0.04 μM) [1, 14]: 1.092; Complete Media [1, 15]: 0.8741; Difference [2, 18]: 0.08
7 | CC(=O)c1c(C)c2cnc(Nc3ccc(N4CCNCC4)cn3)nc2n(C2CCCC2)c1=O.O=S(=O)(O)CCO [Palbociclib (isethionate)] |  |  |  | 0.905 | 0.6502 |  | −0.25 |  |  | Cholesterol-free media + simvastatin (0.04 μM) ([1]; NCI-H292 cells, cholesterol-free media with simvastatin 0.04 μM, FDA drug library screen (TABLE 2)): 0.7514; Complete Media ([1]; NCI-H292 cells, complete media, FDA drug library screen (TABLE 2)): 0.6914; Difference ([1]; complete media minus cholesterol-free media + simvastatin (0.04 μM), >0 enhanced anti-cancer activity, about 0 neutral, <0 antagonist): −0.06
8 | N[C@@H](Cc1cc(I)c(Oc2cc(I)c(O)c(I)c2)c(I)c1)C(=O)O [L-Thyroxine (sodium salt pentahydrate)] |  |  |  |  |  | 0.03 |  |  |  | Cholesterol-free media + simvastatin (0.04 μM) [1, 9]: 0.8275; Complete Media [1, 10]: 0.8532; Difference [2, 19]: −0.15; Cholesterol-free [2, 13]: 1.238; Complete [2, 4]: 1.085
9 | Fc1ccc(C(c2ccc(F)cc2)N2CCN(C/C=C/c3ccccc3)CC2)cc1 [Flunarizine (dihydrochloride)] |  |  |  |  |  | 0.04 | 0.07 | 0.971 | 1.036 | Cholesterol-free media + simvastatin (0.04 μM) [1, 9]: 0.8172; Complete Media [1, 10]: 0.8617
10 | O=c1ccc2ccc(OCCCCN3CCN(c4cccc5sccc45)CC3)cc2[nH]1 [Brexpiprazole] |  |  |  | 0.9917 | 0.6405 | 0.13 |  |  |  | Cholesterol-free media + simvastatin (0.04 μM) [1, 9]: 0.8945; Complete Media [1, 10]: 1.024; Difference [2, 7]: −0.35
11 | c1ccc([C@H]2CN3CCSC3=N2)cc1 [Levamisole (hydrochloride)] |  |  | −0.40 |  |  |  |  | 1.001 | 1.665 | Cholesterol-free media + simvastatin (0.04 μM) [1, 20]: 1.301; Complete Media [1, 21]: 0.9046; Difference [2, 18]: 0.66
12 | CN1C(=O)COc2c(C(=O)NC3CN4CCC3CC4)cc(Cl)cc21 (stereo not shown) [Azasetron (hydrochloride)] |  |  |  |  |  | 0.03 | −0.07 | 0.8277 | 0.7612 | Cholesterol-free media + simvastatin (0.04 μM) [1, 9]: 0.9264; Complete Media [1, 10]: 0.9552
13 | CN1CCC(=C2c3ccccc3C=Cc3ccccc32)CC1 [Cyproheptadine (hydrochloride)] | 0.6096 | 0.7817 |  |  |  | 0.17 |  | 0.9826 | 1.57 | Difference [2, 18]: 0.59
14 | Metoprolol (Succinate) |  |  | −0.19 |  |  |  | 0.02 | 0.9592 | 0.9837 | Cholesterol-free media + simvastatin (0.04 μM) [1, 14]: 1.072; Complete Media [1, 15]: 0.8786
15 | CC(C(=O)O)c1ccc2c(c1)CC(=O)c1ccccc1S2 (stereo not shown) [Zaltoprofen] |  |  | −0.56 |  |  |  |  |  |  | Cholesterol-free media + simvastatin (0.04 μM) [1, 20]: 1.283; Complete Media [1, 21]: 0.7256; Difference [2, 19]: −0.13; Cholesterol-free [2, 13]: 1.151; Complete [2, 4]: 1.025
16 | O=C(O)CCn1c2c(c3ccccc31)C[C@H](NS(=O)(=O)c1ccc(F)cc1)CC2 [Ramatroban] | 1.061 | 0.9101 | −0.15 | 0.905 | 0.6524 |  | −0.25 |  |  | 
17 | CC(/C=C/C=C(\C)C(=O)O[C@@H]1O[C@H](CO[C@@H]2O[C@H](CO)[C@@H](O)[C@H](O)[C@H]2O)[C@@H](O)[C@H](O)[C@H]1O)=C\C=C\C=C(C)\C=C\C=C(/C)C(=O)O[C@@H]1O[C@H](CO[C@@H]2O[C@H](CO)[C@@H](O)[C@H](O)[C@H]2O)[C@@H](O)[C@H](O)[C@H]1O [Crocin] |  |  | −0.21 |  |  |  |  |  |  | Cholesterol-free media + simvastatin (0.04 μM) [1, 14]: 1.135; Complete Media [1, 15]: 0.9252; Difference [2, 19]: −0.11; Cholesterol-free [2, 13]: 1.099; Complete [2, 4]: 0.9914
18 | C[C@H]1[C@@H](O)O[C@@H]2O[C@@]3(C)CC[C@H]4[C@H](C)CC[C@@H]1[C@@]24OO3 [Dihydroartemisinin] |  |  | −0.19 |  |  |  | 0.05 | 0.5972 | 0.6489 | Cholesterol-free media + simvastatin (0.04 μM) [1, 14]: 0.9193; Complete Media [1, 15]: 0.7262
19 | Sc1ncnc2nc[nH]c12 [6-Mercaptopurine] | 1.121 | 0.9807 | −0.14 | 0.7087 | 0.4285 |  | −0.28 |  |  | 
20 | CCCCc1oc2ccc(NS(C)(=O)=O)cc2c1C(=O)c1ccc(OCCCN(CCCC)CCCC)cc1 [Dronedarone] | 0.4908 | 0.8741 |  |  |  | 0.38 |  |  |  | Difference [2, 19]: −0.14; Cholesterol-free [2, 13]: 1.006; Complete [2, 4]: 0.8674
21 | N[C@@H](Cc1c[nH]c2ccc(O)cc12)C(=O)O [5-Hydroxytryptophan] |  |  | −0.24 | 1.189 | 0.856 |  |  |  |  | Cholesterol-free media + simvastatin (0.04 μM) [1, 14]: 1.063; Complete Media [1, 15]: 0.8252; Difference [2, 7]: −0.33
22 | CC(=O)c1ccc(S(=O)(=O)NC(=O)NC2CCCCC2)cc1 [Acetohexamide] | 1.214 | 1.116 | −0.10 |  |  |  |  |  |  | Difference [2, 19]: −0.13; Cholesterol-free [2, 13]: 1.163; Complete [2, 4]: 1.03
